Tests used:
[1] = target: T1, LIMP-2 ectodomain (His6.hLIMP-2(aa35-430)) (Homo sapiens, UniProt Q14108); assay: microscale thermophoresis; assay type: binding; details: 25 nM protein labelled with Red-tris-NTA; 300 mM NaAc pH 6.0, 150 mM NaCl, 0.05% Tween 20, 0.1% Fos-Choline 13; room temperature; read-out: EC50
T1 construct: gene SCARB2; luminal domain aa 35-430, N-terminal His6 tag (cloned after a protein A tag)
T1 sequence (Q14108 35-430): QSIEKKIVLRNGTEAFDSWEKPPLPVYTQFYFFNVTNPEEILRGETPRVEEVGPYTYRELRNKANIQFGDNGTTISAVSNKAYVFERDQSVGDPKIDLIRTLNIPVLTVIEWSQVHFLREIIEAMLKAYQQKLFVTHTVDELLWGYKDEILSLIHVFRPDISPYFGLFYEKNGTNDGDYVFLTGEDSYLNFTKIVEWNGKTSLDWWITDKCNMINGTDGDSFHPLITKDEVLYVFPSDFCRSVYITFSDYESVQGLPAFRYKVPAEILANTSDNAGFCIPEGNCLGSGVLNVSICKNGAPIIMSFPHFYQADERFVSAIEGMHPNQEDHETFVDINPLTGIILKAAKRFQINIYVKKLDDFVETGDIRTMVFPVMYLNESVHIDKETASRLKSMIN
Source text: microscale thermophoresis on LIMP-2 ectodomain (His6.hLIMP-2(aa35-430)) | direct interaction between purified, soluble His-tagged LIMP-2 protein labeled with Red-tris-NTA dye and cholesterol

[2] = target: T1, LIMP-2 ectodomain (His6.hLIMP-2(aa35-430)); assay: UV crosslinking and click rhodamine, SDS-PAGE; assay type: binding; details: covalent; labelled compound; 50 µM probe, 12 h at 4 °C, UV 15 min

Kd [1]	SMILES	UV crosslinking and click rhodamine, SDS-PAGE [2]
112 ± 32 nM	CC(C)CCC[C@@H](C)[C@H]1CC[C@H]2[C@@H]3CC=C4C[C@@H](O)CC[C@]4(C)[C@H]3CC[C@]12C [cholesterol]	
	C#CCCCC1(CCCCCCCCC(=O)N[C@@H](CO)[C@H](O)/C=C/CCCCCCCCCCCCC)N=N1 [pacFA ceramide]	fatty acids, ceramide and sphingosine bound with lower affinity
	C#CCCCC1(CCCCCCCCC(=O)O)N=N1 [pacFA]	fatty acids, ceramide and sphingosine bound with lower affinity
	C#CCCCC1(CCCCCCCC/C=C/[C@@H](O)[C@@H](N)CO)N=N1 [photoclick sphingosine]	fatty acids, ceramide and sphingosine bound with lower affinity

— PMC6684646, “Lysosomal integral membrane protein-2 (LIMP-2/SCARB2) is involved in lysosomal cholesterol export” (Nature Communications, 2019)
